Test results as given in BindingDB's records for doi:10.1021/jm0311442 (University of Newcastle, 2004).

Molecular target: Cyclin-dependent kinase 1/G2/mitotic-specific cyclin-B (Marthasterias glacialis, UniProt P15206+Q9DGD3)
Experiment: Kinase Inhibition Assay

Chain of Cyclin-dependent kinase 1/G2/mitotic-specific cyclin-B (Q9DGD3 whole entry): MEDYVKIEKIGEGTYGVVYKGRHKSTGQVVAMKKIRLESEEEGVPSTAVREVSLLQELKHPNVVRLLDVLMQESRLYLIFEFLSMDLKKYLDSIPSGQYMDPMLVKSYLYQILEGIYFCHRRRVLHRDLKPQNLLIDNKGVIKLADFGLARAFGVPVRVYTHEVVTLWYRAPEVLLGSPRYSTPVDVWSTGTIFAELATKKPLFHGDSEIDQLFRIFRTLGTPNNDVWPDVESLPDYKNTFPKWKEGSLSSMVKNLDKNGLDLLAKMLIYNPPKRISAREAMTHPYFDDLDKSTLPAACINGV
Chain of Cyclin-dependent kinase 1/G2/mitotic-specific cyclin-B (P15206 whole entry): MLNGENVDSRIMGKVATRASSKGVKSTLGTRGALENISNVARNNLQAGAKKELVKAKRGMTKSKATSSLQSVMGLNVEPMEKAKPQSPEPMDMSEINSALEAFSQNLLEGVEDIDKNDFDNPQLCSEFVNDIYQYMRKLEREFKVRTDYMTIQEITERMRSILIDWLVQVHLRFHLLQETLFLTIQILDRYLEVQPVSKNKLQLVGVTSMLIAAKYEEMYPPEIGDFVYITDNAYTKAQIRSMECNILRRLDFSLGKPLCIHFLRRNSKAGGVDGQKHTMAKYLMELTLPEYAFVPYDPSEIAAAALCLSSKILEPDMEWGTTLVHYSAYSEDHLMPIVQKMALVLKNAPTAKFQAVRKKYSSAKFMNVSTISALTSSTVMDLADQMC

IC50: 80 nM
SMILES: CS(=O)(=O)c1ccc(Nc2nc(OCC3CCCCC3)c3[nH]cnc3n2)cc1 [6-(cyclohexylmethoxy)-N-(4-methanesulfonylphenyl)-9H-purin-2-amine]
